Publication PMC12700550, “DLL4^+ neutrophils promote Notch1-mediated endothelial PANoptosis to exacerbate acute lung injury in sepsis” (The Journal of Clinical Investigation, 2025)
Where “and” joins values, the source holds several entries; their conditions need not be identical. Equal values may be shown once.

Tests used:
[1] = system: TNF-α; assay: Lung TNF-α mRNA, CLP mice; format: in vivo, mouse; conditions: 20 h; for lung TNF-α mRNA (Figure 6F): 10 mg/kg NDI, vs sham, individual mice
Procedure: Sepsis was induced in mice by cecal ligation and puncture (CLP) as described previously ([45], [46]). Mice were anesthetized with isoflurane to a surgical plane and placed in a supine position. CLP was performed through a midline laparotomy. The abdomen was shaved and disinfected. Through a 2 cm midline incision, the cecum was exposed and then ligated with a 4-0 silk suture 1 cm proximal from the distal cecal extremity. For 20-hour CLP experiments, the cecum was punctured twice with a 22-gauge needle. A small amount of cecal content was extruded through both holes, and the ligated cecum was returned to the peritoneal cavity. The wound was closed in layers. For 10-day sepsis survival studies, the cecum was punctured once with a 22-gauge needle. A small amount of cecal content was extruded. Mice were allocated to the vehicle and adoptive transfer of DLL4^+ neutrophils or DLL4^– neutrophils groups. Adoptive transfer mice received a retro-orbital injection of 1 × 10^6 cells per mouse DLL4^+ neutrophils or DLL4^– neutrophils in […] phosphate-buffered saline (PBS) immediately after abdominal closure in both the 20-hour experiments and the survival study. Vehicle groups received an equivalent volume of PBS, while treatment groups received NDI 10 mg/kg in […] PBS via retro-orbital injection after CLP. This dose was chosen primarily on the basis of our laboratory’s prior experience, we have consistently used this dose in mouse CLP models with reproducible efficacy and without observable toxicity ([39], [44]). Sham-operated animals underwent a laparotomy without CLP. After closure, the mice received a subcutaneous injection of 0.5 mL of normal saline to overcome surgery-induced dehydration. For 20-hour experiments, animals were not injected with antibiotics; however, for survival studies, animals were given 0.5 mg per kg body weight imipenem (lot 4D21K05, WG Critical Care LLC) subcutaneously in 0.5 mL saline once at the end of CLP. All mice were subcutaneously injected with a single dose of 0.1 mg/kg buprenorphine after CLP. […]

[2] = system: IL-6; assay: Serum IL-6, CLP mice, ELISA; format: in vivo, mouse; conditions: DLL4^+ neutrophil-injected CLP mice, 10 mg/kg, 20 h
Procedure: Sepsis was induced in mice by cecal ligation and puncture (CLP) as described previously ([45], [46]). Mice were anesthetized with isoflurane to a surgical plane and placed in a supine position. CLP was performed through a midline laparotomy. The abdomen was shaved and disinfected. Through a 2 cm midline incision, the cecum was exposed and then ligated with a 4-0 silk suture 1 cm proximal from the distal cecal extremity. For 20-hour CLP experiments, the cecum was punctured twice with a 22-gauge needle. A small amount of cecal content was extruded through both holes, and the ligated cecum was returned to the peritoneal cavity. The wound was closed in layers. For 10-day sepsis survival studies, the cecum was punctured once with a 22-gauge needle. A small amount of cecal content was extruded. Mice were allocated to the vehicle and adoptive transfer of DLL4^+ neutrophils or DLL4^– neutrophils groups. […]
Blood was collected by heart puncture and centrifuged at 1,500g and 4°C for 10 minutes, and the plasma was separated to assess cytokine levels using enzyme-linked immunosorbent assay (ELISA) kits (BD Biosciences). The plasma TNF-α (catalog 558534) and IL-6 (catalog 555240) levels were measured by ELISA.

ECAGSPCHNGGTCEDGI [NDI]
effect on lung TNF-α mRNA ([1]; DLL4^+ neutrophil-injected CLP mice, 10 mg/kg): significantly decreased the mRNA expression of TNF-α, IL-6, and KC in lung tissues
lung TNF-α mRNA (Figure 6F) ([1]; DLL4^+ neutrophils + CLP): 4.255 fold change and 2.291 fold change and 5.674 fold change and 4.568 fold change and 3.143 fold change and 2.408 fold change and 0.5968 fold change and 4.125 fold change and 0.8652 fold change and 4.064 fold change and 0.4766 fold change and 9.1932 fold change and 5.227 fold change and 8.424 fold change
lung TNF-α mRNA (Figure 6F) ([1]; DLL4^– neutrophils + CLP): 8.678 fold change and 9.157 fold change and 5.574 fold change and 9.371 fold change and 6.524 fold change and 4.342 fold change and 3.267 fold change and 5.109 fold change and 7.731 fold change
effect on serum IL-6 [2]: significantly reduced the serum levels of hepatic and cell injury markers and proinflammatory cytokines
